This passage reports IC50 results from patent US9221822B2, “Thiazolopyrimidine modulators as immunosuppressive agents” (Katholieke Universiteit Leuven, K.U.Leuven R&D, priority 2009, dated 2015).

This assay has as its system Human peripheral blood mononuclear cells (PBMCs) as Responder cells, RPMI 1788 Stimulator cells. As to the kind of experiment: Mixed Lymphocyte Reaction (MLR) test. In kind it is cell-based. The following applies: 6 days coculture, 3H-thymidine incorporation. On the procedure:
Human peripheral blood mononuclear cells (PBMCs) were isolated from buffy coats, obtained from healthy blood donors by Ficoll (Lymphoprep, Axis-Shield PoC AS, Oslo, Norway) density-gradient centrifugation. The cells at the Ficoll-plasma interface were washed three times and used as “Responder” cells. RPMI 1788 (ATCC, N^o CCL-156) cells were treated with mitomycin C (Kyowa, Nycomed, Brussel, Belgium) and used as “Stimulator” cells. Responder cells (0.12×10^6), Stimulator cells (0.045×10^6) and compounds (in different concentrations) were cocultured for 6 days in RPMI 1640 medium (BioWhittaker, Lonza, Belgium) supplemented with 10% fetal calf serum, 100 U/ml Geneticin (Gibco, LifeTechnologies, UK). Cells were cultured in triplicate in flat-bottomed 96-well microtiter tissue culture plates (TTP, Switzerland). After 5 days, cells were pulsed with 1 μCi of methyl-^3H thymidine (MP Biomedicals, USA), harvested 18 h later on glass filter paper and counted. Proliferation values were expressed as counts per minute (cpm), and converted to % inhibition with respect to a blank MLR test (identical but without added compound). […]

Where [1] appears, read: Homo sapiens, RPMI-1788, lowest concentration giving 50% inhibition of the MLR.

The structures appear in SMILES notation. Where only a bound is given, the exact number is not on record here.

As to `COc1cccc(CCc2nc3c(N4CCN(C(=O)COc5ccc(Cl)cc5)CC4)nc(N)nc3s2)c1` [Example 255, 1-(4-(5-amino-2-(3-methoxyphenethyl)thiazolo[5,4-d]pyrimidin-7-yl)piperazin-1-yl)-2-(4-chlorophenoxy)ethanone], the IC50 – broadly, the concentration needed to halve the response being measured – under setting [1] worked out at 0.71 µM.

`Nc1nc(N2CCN(c3ccncc3)CC2)c2nc(-c3ccc(F)cc3)[nH]c2n1` [Example 419] came in with an IC50 (lowest concentration giving 50% inhibition of the MLR) greater than 10 µM.

`CSc1nc2c(N3CCN(C(=O)COc4ccc(Cl)cc4)CC3)nc(N)nc2[nH]1` [Example 424, 1-(4-(2-amino-8-(methylthio)-9H-purin-6-yl)piperazin-1-yl)-2-(4-chlorophenoxy)ethanone] returned a half-maximal inhibitory concentration (IC50) under setting [1] of 0.61 µM.

In turn, `Nc1nc(N2CCN(CC(=O)N3CCCC3)CC2)c2nc(-c3ccc(F)cc3)[nH]c2n1` [Example 410, 2-(4-(2-amino-8-(4-fluorophenyl)-9H-purin-6-yl)piperazin-1-yl)-1-(pyrrolidin-1-yl)ethanone] gave a concentration for half-maximal inhibition (IC50) under setting [1] greater than 10 µM.

`CCCCCc1nc2c(N3CCN(C(=O)COc4ccc(OC)cc4)CC3)nc(N)nc2s1` [Example 296, 1-(4-(5-amino-2-pentylthiazolo[5,4-d]pyrimidin-7-yl)piperazin-1-yl)-2-(4-methoxyphenoxy)ethanone] gave a concentration for half-maximal inhibition (IC50) under setting [1] of 7.59 µM. That is a single-digit micromolar value.

For the molecule `Nc1nc(N2CCN(c3nccs3)CC2)c2nc(CCc3ccc(F)cc3)sc2n1` [Example 140, 5-amino-2-[2-(4-fluorophenyl)ethyl]-7-(4-thiazol-2-yl-piperazine-1-yl)-thiazolo[5,4-d]pyrimidine], the IC50 under setting [1] is 8.82 µM.

For `Nc1nc(N2CCN(c3nccs3)CC2)c2nc(-c3ccc(F)cc3)sc2n1` [Example 36, 2-(4-fluorophenyl)-7-(4-(thiazol-2-yl)piperazin-1-yl)thiazolo[5,4-d]pyrimidin-5-amine], the half-maximal inhibitory concentration (IC50) under setting [1] is greater than 10 µM.

As for `COc1ccc(OCC(=O)N2CCN(c3nc(N)nc4sc(CCCCc5ccc(F)cc5)nc34)CC2)cc1` [Example 293, 1-(4-(5-amino-2-(4-(4-fluorophenyl)butyl)thiazolo[5,4-d]pyrimidin-7-yl)piperazin-1-yl)-2-(4-methoxyphenoxy)ethanone], half-maximal inhibition under setting [1] (IC50) was put at 0.93 µM.

In turn, `NC(=O)c1nc(N2CCN(C(=O)COc3ccc(Cl)cc3)CC2)c2cc(-c3ccc(F)cc3)sc2n1` [Example 355, 4-(4-(2-(4-chlorophenoxy)acetyl)piperazin-1-yl)-6-(4-fluorophenyl)thieno[2,3-d]pyrimidine-2-carboxamide] gave an IC50 under setting [1] greater than 10 µM.

As for `Cn1c(-c2ccc(F)cc2)nc2c(N3CCN(C(=O)COc4ccc(Cl)cc4)CC3)nc(N)nc21` [Example 430, 1-(4-(2-amino-8-(4-fluorophenyl)-9-methyl-9H-purin-6-yl)piperazin-1-yl)-2-(4-chlorophenoxy)ethanone], under setting [1], the midpoint of inhibition, the IC50, lay at 0.36 µM.

With `CC(C)N(C(=O)N1CCN(c2nc(N)nc3sc(-c4ccc(F)cc4)cc23)CC1)C(C)C` [Example 347, 4-(2-amino-6-(4-fluorophenyl)thieno[2,3-d]pyrimidin-4-yl)-N,N-diisopropylpiperazine-1-carboxamide], the 50% inhibitory concentration (IC50) under setting [1] was 8.2 µM.

`Nc1nc(N2CCN(C(=O)COc3ccc(Cl)cc3)CC2)c2nc(C3CC3)sc2n1` [Example 119, 5-amino-2-cyclopropyl-7-[4-(4-chlorophenoxyacetyl)piperazin-1-yl]-thiazolo[5,4-d]pyrimidine]: the half-inhibitory concentration (IC50) under setting [1] worked out at 0.6 µM.

For `CCOC(=O)c1nc(N2CCN(C(=O)COc3ccc(Cl)cc3)CC2)c2cc(-c3ccc(F)cc3)sc2n1` [Example 353, ethyl 4-(4-(2-(4-chlorophenoxy)acetyl)piperazin-1-yl)-6-(4-fluorophenyl)thieno[2,3-d]pyrimidine-2-carboxylate], under setting [1], the half-inhibitory concentration (IC50) was greater than 10 µM.

Under setting [1], `CC(c1ccc(F)cc1)c1nc2c(N3CCN(C(=O)COc4ccc(Cl)cc4)CC3)nc(N)nc2s1` (stereo not shown) [Example 66, 1-(4-(5-amino-2-(1-(4-fluorophenyl)ethyl)thiazolo[5,4-d]pyrimidin-7-yl)piperazin-1-yl)-2-(4-chlorophenoxy)ethanone] had an IC50 of 4.38 µM.

On to `Nc1nc(N2CCN(C(=O)COc3ccc(F)cc3)CC2)c2nc(-c3ccc(F)cc3)sc2n1` [Example 233, 1-(4-(5-amino-2-(4-fluorophenyl)thiazolo[5,4-d]pyrimidin-7-yl)piperazin-1-yl)-2-(4-fluorophenoxy)ethanone], for which the IC50 under setting [1] turned out to be 0.074 µM.

Molecule `Cc1cccc(OCC(=O)N2CCN(c3nc(N)nc4sc(-c5cccnc5)nc34)CC2)c1` [Example 275, 1-(4-(5-amino-2-(pyridin-3-yl)thiazolo[5,4-d]pyrimidin-7-yl)piperazin-1-yl)-2-(m-tolyloxy)ethanone] returned a concentration for half-maximal inhibition (IC50) under setting [1] of 0.003 µM.

For `Nc1nc(N2CCN(C(=O)COc3ccc(Cl)cc3)CC2)c2nc(-c3ccncc3)sc2n1` [Example 281, 1-(4-(5-amino-2-(pyridin-4-yl)thiazolo[5,4-d]pyrimidin-7-yl)piperazin-1-yl)-2-(4-chlorophenoxy)ethanone], the half-inhibitory concentration (IC50) under setting [1] worked out at 0.041 µM.

Turning to `O=C(O)c1nc(N2CCN(C(=O)COc3ccc(Cl)cc3)CC2)c2cc(-c3ccc(F)cc3)sc2n1` [Example 357, 4-(4-(2-(4-chlorophenoxy)acetyl)piperazin-1-yl)-6-(4-fluorophenyl)thieno[2,3-d]pyrimidine-2-carboxylic acid], under setting [1], the IC50 was greater than 10 µM.

Turning to `N#Cc1ccc(NC(=O)N2CCN(c3nc(N)nc4sc(-c5ccc(F)cc5)nc34)CC2)cc1` [Example 216, 4-(5-amino-2-(4-fluorophenyl)thiazolo[5,4-d]pyrimidin-7-yl)-N-(4-cyanophenyl)piperazine-1-carboxamide], it took 0.019 µM to reach half-maximal inhibition under setting [1] (IC50).

Molecule `CN(C(=O)CN1CCN(c2nc(N)nc3[nH]c(-c4ccc(F)cc4)nc23)CC1)c1ccccc1` [Example 413, 2-(4-(2-amino-8-(4-fluorophenyl)-9H-purin-6-yl)piperazin-1-yl)-N-methyl-N-phenylacetamide] returned an IC50 under setting [1] greater than 10 µM.

Consider `Nc1nc(N2CCN(S(=O)(=O)Cc3ccccc3)CC2)c2nc(-c3ccc(F)cc3)[nH]c2n1` [Example 405, 6-(4-(benzylsulfonyl)piperazin-1-yl)-8-(4-fluorophenyl)-9H-purin-2-amine], for which, under setting [1], the 50% inhibitory concentration (IC50) is greater than 10 µM.

`Nc1nc(N2CC[C@@H](NC(=O)c3ccc(Cl)cc3)C2)c2nc(CCc3ccc(F)cc3)sc2n1` [Example 144, 5-amino-2-[2-(4-fluorophenyl)ethyl]-7-(3-(R)-(4-chlorobenzoylamino)-pyrrolidin-1-yl)-thiazolo[5,4-d]pyrimidine] displayed a half-maximal inhibitory concentration (IC50) under setting [1] of 5.13 µM.

As for `Nc1nc(N2CCN(C(=O)COc3ccc(Cl)cc3)CC2)c2nc(CCOc3ccc(F)cc3)sc2n1` [Example 48, 1-(4-(5-amino-2-(2-(4-fluorophenoxy)ethyl)thiazolo[5,4-d]pyrimidin-7-yl)piperazin-1-yl)-2-(4-chlorophenoxy)ethanone], under setting [1], the half-inhibitory concentration (IC50) came to 3.54 µM.

As to `Cc1cccc(NC(=O)N2CCN(c3nc(N)nc4sc(Cc5ccc(F)cc5)nc34)CC2)c1` [Example 44, 4-(5-amino-2-(4-fluorobenzyl)thiazolo[5,4-d]pyrimidin-7-yl)-N-m-tolylpiperazine-1-carboxamide], under setting [1], inhibition was half-maximal at 0.4 µM (IC50).

With `Nc1nc(N2CCN(C(=O)c3ccc(Cl)cc3)CC2)c2nc(-c3ccc(F)cc3)[nH]c2n1` [Example 404, (4-(2-amino-8-(4-fluorophenyl)-9H-purin-6-yl)piperazin-1-yl)(4-chlorophenyl)methanone], under setting [1], the IC50 was greater than 10 µM.
